ChEMBL document CHEMBL4616726, “Optimization of the Linker Domain in a Dimeric Compound that Degrades an r(CUG) Repeat Expansion in Cells” (J Med Chem, 2020)
Values belong to the compound of their own block, whether it stands above or below them. Active and inactive are the calls of the source. No cut-off for these calls is given here.

Legend:
r(CUG) repeat expansion [1] = assay: Induction of wild-type DMPK r(CUG)20 RNA repeat degradation in healthy human myotubes at 5 uM by RT-qPCR analysis relative to control; format: nucleic-acid assay
r(CUG) repeat expansion [2] = assay: Binding affinity to r(CUG)8 RNA repeat (unknown origin) by fluorescence based assay; format: nucleic-acid assay
[3] = Drug uptake in human DM1-patient derived myotubes by fluorescence based assay; format: ADME; conditions: in vitro
Homo sapiens [4] = organism: Homo sapiens; assay: Effect on MBNL1 exon 5 splicing patterns in wild type human myotubes at 5 uM by RT-qPCR analysis relative to control; format: functional
Homo sapiens [5] = organism: Homo sapiens; assay: (§1) Induction of DNA damage in human DM1-patient derived myotubes at 1 uM assessed as induction of DNA double strand breaks by measuring gamma-H2AX foci formation by immunofluorescence assay relative to control; format: functional
Homo sapiens [6] = organism: Homo sapiens; assay: Effect on alternative splicing of MAP4K4 exon 22a in human DM1-patient derived myotubes at 5 uM by RT-qPCR analysis relative to control; format: functional
r(CUG) repeat expansion [7] = assay: Induction of r(CUG)10 RNA repeat (unknown origin) degradation at 0.3 to 2.5 uM; format: nucleic-acid assay
r(CUG) repeat expansion [8] = assay: Binding affinity to r(CUG)12 RNA repeat (unknown origin) by fluorescence based assay; format: nucleic-acid assay
r(CUG) repeat expansion [9] = assay: Induction of wild-type DMPK r(CUG)20 RNA repeat degradation in human DM1 patient myotubes at 1 uM by RT-qPCR analysis relative to control; format: nucleic-acid assay
r(CUG) repeat expansion [10] = assay: Induction of DMPK mRNA 3'-UTR r(CUG)1300 repeat degradation in human DM1 patient-derived myotubes at 5 uM by RT-qPCR analysis relative to control; format: nucleic-acid assay
r(CUG) repeat expansion [11] = assay: Induction of LRP8 r(CUG)11 RNA repeat degradation in human DM1 patient myotubes at 1 uM by RT-qPCR analysis relative to control; format: nucleic-acid assay
r(CUG) repeat expansion [12] = assay: Induction of SCUBE2 r(CUG)7 RNA repeat degradation in human DM1 patient myotubes at 1 uM by RT-qPCR analysis relative to control; format: nucleic-acid assay
r(CUG) repeat expansion [13] = assay: Induction of r(CUG)exp RNA repeat in human DM1-patient derived myotubes assessed as reduction in number of foci containing r(CUG)exp-MBNL1 foci at 1 uM by RNA fluorescence in situ hybridization assay; format: nucleic-acid assay
r(CUG) repeat expansion [14] = assay: Induction of r(CUG)10 RNA repeat (unknown origin) degradation at 2.5 uM relative to control; format: nucleic-acid assay
r(CUG) repeat expansion [15] = assay: Induction of MAP3K4 r(CUG)11 RNA repeat degradation in human DM1 patient myotubes at 1 uM by RT-qPCR analysis relative to control; format: nucleic-acid assay
r(CUG) repeat expansion [16] = assay: Induction of CASK r(CUG)16 RNA repeat degradation in human DM1 patient myotubes at 1 uM by RT-qPCR analysis relative to control; format: nucleic-acid assay
r(CUG) repeat expansion [17] = assay: Induction of DMPK mRNA 3'-UTR r(CUG)1300 repeat degradation in human DM1 patient-derived myotubes at 1 uM by RT-qPCR analysis relative to control; format: nucleic-acid assay
r(CUG) repeat expansion [18] = assay: Induction of SORCS2 r(CUG)7 RNA repeat degradation in human DM1 patient myotubes at 1 uM by RT-qPCR analysis relative to control; format: nucleic-acid assay
r(CUG) repeat expansion [19] = assay: Induction of r(CUG)exp RNA repeat in human DM1-patient derived myotubes assessed as improvement in MBNL1 exon 5 splicing defect at 1 uM by RT-qPCR analysis relative to control; format: nucleic-acid assay
r(CUG) repeat expansion [20] = assay: Induction of r(CUG)exp RNA repeat in human DM1-patient derived myotubes assessed as improvement in MBNL1 exon 5 splicing defect at 5 uM by RT-qPCR analysis relative to control; format: nucleic-acid assay
r(CUG) repeat expansion [21] = assay: Induction of r(CUG)exp RNA repeat in human DM1-patient derived myotubes assessed as improvement in MBNL1 exon 5 splicing defect at 0.2 to 5 uM by RT-qPCR analysis relative to control; format: nucleic-acid assay
r(CUG) repeat expansion [22] = assay: Induction of DMPK mRNA 3'-UTR r(CUG)1300 repeat degradation in human DM1 patient-derived myotubes at 0.2 to 5 uM by RT-qPCR analysis relative to control; format: nucleic-acid assay
[23] = Drug localization in cytoplasm of human DM1-patient derived myotubes by live-cell fluorescence microscopy; format: ADME, subcellular
r(CUG) repeat expansion [24] = assay: Induction of 5'-biotinylated r(CUG)12 RNA repeat (unknown origin) degradation assessed as disruption of r(CUG)12-MBNL1 complex formation incubated for 15 mins by TR-FRET assay; format: nucleic-acid assay
[25] = Drug localization in nucleus of human DM1-patient derived myotubes by live-cell fluorescence microscopy; format: ADME, subcellular
[26] = Toxicity in human DM1-patient derived myotubes at 5 uM
r(CUG) repeat expansion [27] = assay: Induction of r(CUG)exp RNA repeat in human DM1-patient derived myotubes assessed as reduction in number of foci containing r(CUG)exp-MBNL1 foci at 5 uM by immunofluorescence assay; format: nucleic-acid assay
r(CUG) repeat expansion [28] = assay: Induction of r(CUG)exp RNA repeat in human DM1-patient derived myotubes assessed as reduction in number of foci containing r(CUG)exp-MBNL1 foci at 5 uM by RNA fluorescence in situ hybridization assay; format: nucleic-acid assay
[29] = as §1; format: functional

SMILES: Cc1c(N)nc([C@@H](CC(N)=O)NC[C@@H](N)C(N)=O)nc1C(=O)N[C@@H](C(=O)N[C@@H](C)[C@H](O)[C@@H](C)C(=O)N[C@H](C(=O)NCCc1nc(-c2nc(C(=O)NCCCNCCCCNC(=O)CN(CCCCN(C)C(=O)CCCOc3cccc(-c4nc5cc(-c6nc7cc(N8CCN(C)CC8)ccc7[nH]6)ccc5[nH]4)c3)C(=O)[C@H]3CCCN3C(=O)[C@H]3CCCN3C(=O)CCCOc3cccc(-c4nc5ccc(-c6nc7ccc(N8CCN(C)CC8)cc7[nH]6)cc5[nH]4)c3)cs2)cs1)[C@H](C)O)[C@H](O[C@@H]1O[C@@H](CO)[C@@H](O)[C@@H](O)[C@@H]1O[C@H]1O[C@H](CO)[C@@H](O)[C@H](OC(N)=O)[C@H]1O)c1cnc[nH]1
Activity (r(CUG) repeat expansion [1]): inactive
EC50 (r(CUG) repeat expansion [2]): > 10000 nM
Drug uptake [3]: Active
Activity (Homo sapiens [4]): inactive
Activity (Homo sapiens [5]): inactive
Activity (Homo sapiens [6]): inactive
Activity (r(CUG) repeat expansion [7]): Dose-dependent effect
EC50 (r(CUG) repeat expansion [8]): 280 nM
Activity (r(CUG) repeat expansion [9]): inactive
Activity (r(CUG) repeat expansion [10]): 45%
Activity (r(CUG) repeat expansion [11]): inactive
Activity (r(CUG) repeat expansion [12]): inactive
Activity (r(CUG) repeat expansion [13]): Active
Activity (r(CUG) repeat expansion [14]): 20%
Activity (r(CUG) repeat expansion [15]): inactive
Activity (r(CUG) repeat expansion [16]): inactive
Activity (r(CUG) repeat expansion [17]): Active
Activity (r(CUG) repeat expansion [18]): inactive
Activity (r(CUG) repeat expansion [19]): 30%
Activity (r(CUG) repeat expansion [20]): 50%

SMILES: CC(=O)N(C)CCCCN(CC(=O)NCCCCNCCCNC(=O)c1csc(-c2csc(CCNC(=O)[C@@H](NC(=O)[C@H](C)[C@@H](O)[C@H](C)NC(=O)[C@H](NC(=O)c3nc([C@@H](CC(N)=O)NC[C@@H](N)C(N)=O)nc(N)c3C)[C@H](O[C@@H]3O[C@@H](CO)[C@@H](O)[C@@H](O)[C@@H]3O[C@H]3O[C@H](CO)[C@@H](O)[C@H](OC(N)=O)[C@H]3O)c3cnc[nH]3)[C@H](C)O)n2)n1)C(=O)[C@H]1CCCN1C(=O)[C@H]1CCCN1C(C)=O
Activity (r(CUG) repeat expansion [21]): inactive
Activity (r(CUG) repeat expansion [22]): inactive
Activity (r(CUG) repeat expansion [14]): inactive

SMILES: CN1CCN(c2ccc3[nH]c(-c4ccc5[nH]c(-c6cccc(OCCCC(=O)N(C)CCCCN(CC(N)=O)C(=O)[C@H](Cc7ccc(O)cc7)NC(=O)[C@H](Cc7ccc(O)cc7)NC(=O)[C@H](Cc7ccc(O)cc7)NC(=O)[C@H](Cc7ccc(O)cc7)NC(=O)CCCOc7cccc(-c8nc9ccc(-c%10nc%11ccc(N%12CCN(C)CC%12)cc%11[nH]%10)cc9[nH]8)c7)c6)nc5c4)nc3c2)CC1
Activity [26]: Toxic

SMILES: Cc1c(N)nc([C@H](CC(N)=O)NC[C@H](N)C(N)=O)nc1C(=O)N[C@H](C(=O)N[C@H](C)[C@@H](O)[C@H](C)C(=O)N[C@H](C(=O)NCCc1nc(-c2nc(C(=O)NCCCNCCCCN)cs2)cs1)[C@@H](C)O)[C@@H](O[C@@H]1O[C@@H](CO)[C@@H](O)[C@H](O)[C@@H]1O[C@@H]1O[C@H](CO)[C@@H](O)[C@H](OC(N)=O)[C@@H]1O)c1cnc[nH]1
fold change (FC) [29]: 6

The next lines start with the values.

Drug uptake [23]: Active
Activity (r(CUG) repeat expansion [24]): Active
Activity (r(CUG) repeat expansion [20]): inactive
Drug uptake [25]: Active
SMILES: C[C@@H](NC(=O)CCCOc1cccc(-c2nc3ccc(-c4nc5ccc(N6CCN(C)CC6)cc5[nH]4)cc3[nH]2)c1)C(=O)N[C@H](C)C(=O)N[C@H](C)C(=O)N[C@H](C)C(=O)N(CCCCN(C)C(=O)CCCOc1cccc(-c2nc3cc(-c4nc5cc(N6CCN(C)CC6)ccc5[nH]4)ccc3[nH]2)c1)CC(N)=O

Activity (r(CUG) repeat expansion [24]): Active
SMILES: CN1CCN(c2ccc3[nH]c(-c4ccc5[nH]c(-c6cccc(OCCCC(=O)N(C)CCCCN(CC(N)=O)C(=O)[C@H](Cc7ccc(O)cc7)N(C)C(=O)[C@H](Cc7ccc(O)cc7)N(C)C(=O)[C@H](Cc7ccc(O)cc7)N(C)C(=O)[C@H](Cc7ccc(O)cc7)N(C)C(=O)CCCOc7cccc(-c8nc9ccc(-c%10nc%11ccc(N%12CCN(C)CC%12)cc%11[nH]%10)cc9[nH]8)c7)c6)nc5c4)nc3c2)CC1

EC50 (r(CUG) repeat expansion [2]): > 10000 nM
Drug uptake [3]: Active
EC50 (r(CUG) repeat expansion [8]): 280 nM
Activity (r(CUG) repeat expansion [27]): Active
Activity (r(CUG) repeat expansion [24]): Active
Activity (r(CUG) repeat expansion [20]): 30%
Drug uptake [25]: Active
Activity (r(CUG) repeat expansion [28]): Active
SMILES: C[C@@H](C(=O)N(C)[C@@H](C)C(=O)N(C)[C@@H](C)C(=O)N(C)[C@@H](C)C(=O)N(CCCCN(C)C(=O)CCCOc1cccc(-c2nc3cc(-c4nc5cc(N6CCN(C)CC6)ccc5[nH]4)ccc3[nH]2)c1)CC(N)=O)N(C)C(=O)CCCOc1cccc(-c2nc3ccc(-c4nc5ccc(N6CCN(C)CC6)cc5[nH]4)cc3[nH]2)c1
